Measured values from patent US20250268474A1, “Systems and Methods for Detecting Fibrosis” (3HELIX, INC., priority 2021, published 2025).
Where no end group is shown, it is not given here. [ ]: non-standard residue; d: D form. Pro(cis-4-F) = O=C(O)[C@@H]1C[C@H](F)CN1; Hyp = O=C(O)[C@@H]1C[C@@H](O)CN1

Test system: damaged/denatured collagen
Assay: LCHP in vivo imaging (fundus / ICG angiography) in CNV mice
Details: spontaneous CNV (JR5558), FIG. 6A; 1 nmol per animal, tail vein

Substance: sulfo-Cy7.5-GGG-OfGGOfGfGfOfOGOfGOOfGGOOff ({sulfo‑Cy7.5}-GGG[Hyp][Pro(cis-4-F)]GG[Hyp][Pro(cis-4-F)]G[Pro(cis-4-F)]G[Pro(cis-4-F)][Hyp][Pro(cis-4-F)][Hyp]G[Hyp][Pro(cis-4-F)]G[Hyp][Hyp][Pro(cis-4-F)]GG[Hyp][Hyp][Pro(cis-4-F)][Pro(cis-4-F)]; not fully specified; printed as sulfo-Cy7.5-GGG-OfGGOfGfGfOfOGOfGOOfGGOOff) [scrambled sCy7.5-CHP]
- signal in IR, FA and ICGA imaging: no significant signal was detected
